Patent publication US10670605B2, “Cysteine reactive probes and uses thereof” (The Scripps Research Institute, priority 2015, dated 2020)
Blank lines part the entries; values can stand above or below the compound they belong to.

Legend:
Assay in all cases: Competitive isoTOP-ABPP, cell lysates
Assay type in all cases: binding
ACAT1 C126 (P24752) = molecular target: T1, ACAT1 C126 (P24752) (Homo sapiens, UniProt P24752); conditions: for R value (DMSO/fragment) / isoTOP-ABPP ratio, P24752_C126: 500 μM; for isoTOP-ABPP ratio, P24752_C126: 231
T1 sequence (P24752 34-427): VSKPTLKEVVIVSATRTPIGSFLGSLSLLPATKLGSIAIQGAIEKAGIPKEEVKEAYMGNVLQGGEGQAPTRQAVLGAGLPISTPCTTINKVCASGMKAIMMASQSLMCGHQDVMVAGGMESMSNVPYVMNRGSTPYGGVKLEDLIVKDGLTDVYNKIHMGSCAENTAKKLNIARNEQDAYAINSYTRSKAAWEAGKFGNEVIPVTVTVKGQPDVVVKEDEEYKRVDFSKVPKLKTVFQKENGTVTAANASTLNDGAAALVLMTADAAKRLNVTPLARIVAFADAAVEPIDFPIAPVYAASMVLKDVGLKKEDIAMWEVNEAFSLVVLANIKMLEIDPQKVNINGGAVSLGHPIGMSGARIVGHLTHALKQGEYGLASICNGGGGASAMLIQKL

ACAT1 C119 (P24752) = molecular target: T2, ACAT1 C119 (P24752) (Homo sapiens, UniProt P24752); conditions: for R value (DMSO/fragment) / isoTOP-ABPP ratio P24752_C119: 500 μM
T2 sequence (P24752 34-427): T1 sequence (P24752 34-427)

UBE2S C118 (Q16763) = molecular target: T3, UBE2S C118 (Q16763) (Homo sapiens, UniProt Q16763); conditions: for R value (DMSO/fragment): 500 μM
T3 sequence (Q16763 1-222): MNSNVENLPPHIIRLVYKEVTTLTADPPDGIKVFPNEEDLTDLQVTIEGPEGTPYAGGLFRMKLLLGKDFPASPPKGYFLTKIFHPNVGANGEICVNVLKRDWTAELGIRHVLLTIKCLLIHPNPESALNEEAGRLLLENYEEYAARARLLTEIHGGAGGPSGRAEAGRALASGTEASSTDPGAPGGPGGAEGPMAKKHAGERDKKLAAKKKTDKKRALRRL

ACAT1 C196 (P24752) = molecular target: T4, ACAT1 C196 (P24752) (Homo sapiens, UniProt P24752); conditions: for R value (DMSO/fragment) / isoTOP-ABPP ratio, P24752_C196: 500 μM
T4 sequence (P24752 34-427): T1 sequence (P24752 34-427)

ADA C75 (P00813) = molecular target: T5, ADA C75 (P00813) (Homo sapiens, UniProt P00813); conditions: for isoTOP-ABPP ratio (reactivity profile), P00813_C75: 500 μm in-vitro ramos
T5 sequence (P00813 1-363): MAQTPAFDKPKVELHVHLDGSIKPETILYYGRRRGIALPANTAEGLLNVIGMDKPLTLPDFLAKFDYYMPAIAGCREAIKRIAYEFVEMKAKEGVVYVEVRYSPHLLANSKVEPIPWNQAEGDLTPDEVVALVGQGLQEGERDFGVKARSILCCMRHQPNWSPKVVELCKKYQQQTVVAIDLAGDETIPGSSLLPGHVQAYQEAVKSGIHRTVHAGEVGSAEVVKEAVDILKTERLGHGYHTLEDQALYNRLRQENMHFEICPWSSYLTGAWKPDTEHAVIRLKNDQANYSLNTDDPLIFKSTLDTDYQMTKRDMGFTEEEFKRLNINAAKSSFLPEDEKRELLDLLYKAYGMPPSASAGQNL

USP22 C171 (Q9UPT9) = molecular target: T6, USP22 C171 (Q9UPT9) (Homo sapiens, UniProt Q9UPT9)
T6 sequence (Q9UPT9 1-525): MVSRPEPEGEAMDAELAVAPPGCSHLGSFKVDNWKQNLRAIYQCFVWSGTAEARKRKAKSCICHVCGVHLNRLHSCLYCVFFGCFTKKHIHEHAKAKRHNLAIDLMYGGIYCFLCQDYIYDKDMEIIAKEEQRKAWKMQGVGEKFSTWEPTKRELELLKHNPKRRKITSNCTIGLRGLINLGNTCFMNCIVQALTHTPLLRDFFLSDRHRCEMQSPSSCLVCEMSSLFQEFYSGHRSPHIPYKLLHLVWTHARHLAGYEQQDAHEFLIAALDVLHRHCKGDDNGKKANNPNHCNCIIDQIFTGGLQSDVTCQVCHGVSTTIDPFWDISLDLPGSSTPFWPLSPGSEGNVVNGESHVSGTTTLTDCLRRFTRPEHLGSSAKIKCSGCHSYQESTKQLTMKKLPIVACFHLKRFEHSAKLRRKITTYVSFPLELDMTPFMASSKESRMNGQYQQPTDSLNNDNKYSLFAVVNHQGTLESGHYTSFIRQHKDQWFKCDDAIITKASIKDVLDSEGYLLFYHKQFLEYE

SMILES: O=C(CCl)NC1C(O)OC(CO)C(O)C1O (mixture of isomers) [compound 44]
- isoTOP-ABPP reactivity profile ratio, P24752_C126 (ACAT1 C126 (P24752); 500 μm, in-vitro_ramos_231): 0.8
- isoTOP-ABPP reactivity profile ratio, P24752_C119 (ACAT1 C119 (P24752); 500 μm, in-vitro_ramos_231): 0.8
- isoTOP-ABPP reactivity profile ratio, Q16763_C118 (UBE2S C118 (Q16763); 500 μm, in-vitro_ramos_231): 0.8
- isoTOP-ABPP reactivity profile ratio, P24752_C196 (ACAT1 C196 (P24752); 500 μm, in-vitro_ramos_231): 0.8

SMILES: O=C(CCl)Nc1cc(C(F)(F)F)cc(C(F)(F)F)c1 [compound 3]
- R value (DMSO/fragment) (ACAT1 C126 (P24752); in vitro, MDA-MB-231): 2.6
- R value (DMSO/fragment) (ACAT1 C126 (P24752); invitro, ramos): 2.4
- R value (DMSO/fragment) (ACAT1 C119 (P24752); in vitro, MDA-MB-231): 2.1
- R value (DMSO/fragment) (ACAT1 C119 (P24752); invitro, ramos): 5.3
- R value (DMSO/fragment) (ADA C75 (P00813); 500 μM, invitro, ramos): 1.5
- R value (DMSO/fragment) (UBE2S C118 (Q16763); in vitro, MDA-MB-231): 1.3
- R value (DMSO/fragment) (UBE2S C118 (Q16763); invitro, ramos): 1.5
- R value (DMSO/fragment) (ACAT1 C196 (P24752); in vitro, MDA-MB-231): 1.7
- R value (DMSO/fragment) (ACAT1 C196 (P24752); invitro, ramos): 3.1

SMILES: CNS(=O)(=O)C=Cc1ccc2c(ccn2Cc2ccccc2)c1 [compound 6]
- isoTOP-ABPP ratio, P24752_C126 (ACAT1 C126 (P24752); invitro): 0.9
- isoTOP-ABPP ratio P24752_C119 (ACAT1 C119 (P24752); invitro, 231): 1.1
- isoTOP-ABPP ratio, P24752_C196 (ACAT1 C196 (P24752); invitro, 231): 1.0

SMILES: Cn1cc(S(=O)(=O)N2CCOCC2)cc1C(=O)NC(=O)CCl [compound 11]
- isoTOP-ABPP ratio, P24752_C126 (ACAT1 C126 (P24752); invitro): 1.5
- isoTOP-ABPP ratio P24752_C119 (ACAT1 C119 (P24752); invitro, 231): 1.2
- isoTOP-ABPP ratio P24752_C119 (ACAT1 C119 (P24752); invitro, ramos): 0.9
- isoTOP-ABPP ratio, Q9UPT9_C171 (USP22 C171 (Q9UPT9); 500 μM, invitro, ramos): 8.2
- isoTOP-ABPP ratio, P00813_C75 (ADA C75 (P00813); 500 μM, invitro, ramos): 7.5
- isoTOP-ABPP ratio, P24752_C196 (ACAT1 C196 (P24752); invitro, 231): 1.5
- isoTOP-ABPP ratio, P24752_C196 (ACAT1 C196 (P24752); invitro, ramos): 1.3

SMILES: O=C(CCl)NC12CC3CC(CC(C3)C1)C2 [compound 21]
- isoTOP-ABPP ratio (reactivity profile), P24752_C126 (ACAT1 C126 (P24752); 500 μm in-vitro ramos): 1.4
- isoTOP-ABPP ratio (reactivity profile), P24752_C126 (ACAT1 C126 (P24752); 500 μm in-vitro ramos_231): 1.2
- isoTOP-ABPP ratio (reactivity profile), P24752_C119 (ACAT1 C119 (P24752); 500 μm in-vitro ramos): 1.1
- isoTOP-ABPP ratio (reactivity profile), P24752_C119 (ACAT1 C119 (P24752); 500 μm in-vitro ramos_231): 0.9
- isoTOP-ABPP ratio (reactivity profile), P00813_C75 (ADA C75 (P00813)): 1.3
- isoTOP-ABPP ratio (reactivity profile), Q16763_C118 (UBE2S C118 (Q16763); 500 μm in-vitro ramos_231): 0.9
- isoTOP-ABPP ratio (reactivity profile), P24752_C196 (ACAT1 C196 (P24752); 500 μm in-vitro ramos): 1.1
- isoTOP-ABPP ratio (reactivity profile), P24752_C196 (ACAT1 C196 (P24752); 500 μm in-vitro ramos_231): 1.0

SMILES: O=C(CCl)N(Cc1ccc(F)cc1)C12CC3CC(CC(C3)C1)C2 [compound 34]
- isoTOP-ABPP reactivity ratio, P24752_C126 (ACAT1 C126 (P24752); 500 μm, in-vitro_ramos): 1.1
- isoTOP-ABPP reactivity ratio, P24752_C119 (ACAT1 C119 (P24752); 500 μm, in-vitro_ramos_231): 0.8
- isoTOP-ABPP reactivity ratio, P00813_C75 (ADA C75 (P00813); 500 μm, in-vitro_ramos): 1.1
- isoTOP-ABPP reactivity ratio, P24752_C196 (ACAT1 C196 (P24752); 500 μm, in-vitro_ramos): 1.0
- isoTOP-ABPP reactivity ratio, P24752_C196 (ACAT1 C196 (P24752); 500 μm, in-vitro_ramos_231): 0.8

Results, then the compound that gave them:

- isoTOP-ABPP ratio, P24752_C126 (ACAT1 C126 (P24752); invitro): 0.8
- isoTOP-ABPP ratio P24752_C119 (ACAT1 C119 (P24752); invitro, 231): 1.0
- isoTOP-ABPP ratio (reactivity profile), P24752_C119 (ACAT1 C119 (P24752); 500 μm in-vitro ramos): 1.2
- isoTOP-ABPP ratio (reactivity profile), P00813_C75 (ADA C75 (P00813)): 1.1
- isoTOP-ABPP ratio (reactivity profile), Q16763_C118 (UBE2S C118 (Q16763); 500 μm in-vitro ramos): 1.2
- isoTOP-ABPP ratio, P24752_C196 (ACAT1 C196 (P24752); invitro, 231): 0.9
- isoTOP-ABPP ratio (reactivity profile), P24752_C196 (ACAT1 C196 (P24752); 500 μm in-vitro ramos): 1.6
SMILES: C=CC(=O)N(Cc1cccnc1)c1ccc(Oc2ccccc2)c(C(F)(F)F)c1 [compound 15]

- isoTOP-ABPP ratio (reactivity profile), P24752_C126 (ACAT1 C126 (P24752); 500 μm in-vitro ramos_231): 0.9
- isoTOP-ABPP ratio (reactivity profile), P24752_C119 (ACAT1 C119 (P24752); 500 μm in-vitro ramos_231): 1.0
- isoTOP-ABPP ratio (reactivity profile), Q9UPT9_C171 (USP22 C171 (Q9UPT9); 500 μm in-vitro ramos_231): 1.1
- isoTOP-ABPP ratio (reactivity profile), Q16763_C118 (UBE2S C118 (Q16763); 500 μm in-vitro ramos_231): 1.0
- isoTOP-ABPP ratio (reactivity profile), P24752_C196 (ACAT1 C196 (P24752); 500 μm in-vitro ramos_231): 0.9
SMILES: CC(Cl)C(=O)Nc1cc(C(F)(F)F)cc(C(F)(F)F)c1 (stereo not drawn) [compound 25]

- isoTOP-ABPP ratio (reactivity profile), P24752_C126 (ACAT1 C126 (P24752); 500 μm in-vitro ramos): 0.8
- isoTOP-ABPP ratio (reactivity profile), P24752_C126 (ACAT1 C126 (P24752); 500 μm in-vitro ramos_231): 1.1
- isoTOP-ABPP ratio (reactivity profile), P24752_C119 (ACAT1 C119 (P24752); 500 μm in-vitro ramos): 0.6
- isoTOP-ABPP ratio (reactivity profile), P24752_C119 (ACAT1 C119 (P24752); 500 μm in-vitro ramos_231): 1.3
- isoTOP-ABPP ratio (reactivity profile), P24752_C196 (ACAT1 C196 (P24752); 500 μm in-vitro ramos): 1.0
- isoTOP-ABPP ratio (reactivity profile), P24752_C196 (ACAT1 C196 (P24752); 500 μm in-vitro ramos_231): 1.3
SMILES: O=C(CCl)N1CCN(CC(=O)N2CCOCC2)CC1 [compound 29]
